Laboratory results as given in paper PMC9571290, “Preliminary Structure–Activity Relationship Study of the MMV Pathogen Box Compound MMV675968 (2,4-Diaminoquinazoline) Unveils Novel Inhibitors of Trypanosoma brucei brucei” (Molecules, 2022).
Like-named read-outs stand apart in the source and are kept apart here.

Columns and labels:
[1] = tested on: bloodstream forms of Trypanosoma brucei brucei; experiment: resazurin-based antitrypanosomal inhibition assay; format: cell-based; settings: for pIC50 T. b. b.: Table 2
Protocol: Parasites were axenically cultivated in sterile vented flasks containing complete Hirumi’s modified Iscove’s medium 9 (HMI-9) [500 mL IMDM (Iscove’s modified Dulbecco’s medium) (Gibco, Waltham, MA, USA) supplemented with 10% (v/v) heat-inactivated fetal bovine serum (HIFBS) (Sigma Aldrich), 10% (v/v) serum plus (Sigma Aldrich), HMI-9 supplement (1 mM hypoxanthine, 0.16 mM thymidine, 50 µM bathocuproine disulfonic acid, 1.5 mM cysteine, 1.25 Mm pyruvic acid, 0.2 mM 2-mercaptoethanol (Sigma Aldrich)), and 1% (v/v) penicillin–streptomycin (Sigma Aldrich) and incubated at 37 °C in a 5% CO2 atmosphere.
The in vitro inhibitory potency of the 400 MMVPB compounds against bloodstream forms of Trypanosoma brucei brucei was evaluated using the resazurin-based inhibition assay as previously described. Briefly, parasites at their mid-logarithmic growth phase were counted, and the cell density was adjusted with fresh complete HMI-9 medium to 2 × 10^5 trypanosomes per mL. Then, 90 µL of parasite suspension was then distributed into the wells of 96-well flat-bottomed plates containing 10 µL of compounds for a final test concentration of 10 µM. […] Each assay plate was set up in duplicate and repeated two times. The percent parasite inhibition was determined for each compound based on fluorescence readouts relative to the mean fluorescence of negative control wells.
y = 100/[1+ 10^(logIC50/99-x)H], where H is the hill coefficient or slope factor [60].

in vitro = settings: African green monkey
Protocol: (§1) The resulting pellet was resuspended and counted in a Neubauer chamber in the presence of trypan blue to exclude nonviable cells colored in blue. Once the cell load was estimated, they were either used for the next passage in a new flask or processed for the cytotoxicity assay.
(§2) Briefly, Vero cells at a density of 10^4 cells per well were plated in 100 µL of complete DMEM and incubated overnight to allow cell attachment. Plates were then controlled under an inverted fluorescence microscope (Lumascope LS520) to ensure adherence, sterility and cell integrity. Thereafter, culture medium from each well was carefully emptied, and plates were filled with 90 µL of fresh complete medium followed by the addition of 10 µL of serial 5-fold dilutions of compound solutions. […] Fluorescence was then read using a Magelan Infinite M200 fluorescence multiwell plate reader (Tecan) with excitation and emission wavelengths of 530 and 590 nm, respectively. The percentage of cell viability was calculated from readouts, and the median cytotoxic concentration (CC50) for each compound was deduced from concentration–response curves using GraphPad Prism 8.0 software as described above. Selectivity indexes were then determined for each test substance as follows: SI = CC50(Vero cells)/IC50(T. brucei brucei).

[2] = tested on: kinetoplastids (T. brucei brucei and T. brucei rhodesiense); parameters: method as in MMV Pathogen Box supporting information; settings: against kinetoplastids; ref MMV Pathogen Box supporting information; read-out: Reported IC50; cited from earlier work
Vero cells = experiment: cytotoxicity against Vero cells (resazurin viability assay); settings: read-out: CC50 Vero; Table 2
Protocol: as §1, §2

[3] = Trypanosoma brucei, Table 4, analogs of MMV675968, solid material, read-out: IC50 ± SD T. b. b.
[4] = Trypanosoma brucei, Table 4, negative log of IC50 in molar, read-out: pIC50 T. b. b. (converted)
[5] = Trypanosoma brucei, Table 1, reference drugs included in MMVPB, read-out: IC50 ± SD T. b. b.
[6] = Trypanosoma brucei, Table 1, negative log of IC50 in molar, read-out: pIC50 T. b. b. (converted)
[7] = Table 2, MMVPB compounds with known anti-kinetoplastid activity, read-out: IC50 ± SD T. b. b.

## Cc1ccccc1NCc1ccc2nc(N)nc(N)c2c1Cl [Analog 5]
[1]; [3]
  IC50: 2.3 ± 0.2 µM
[1]; [4]
  IC50: 2.29 µM
In vitro
  CC50 at 48 h: > 100 µM

## COc1ccc(NCc2ccc3nc(N)nc(N)c3c2)cc1OC [Analog 6]
[1]; [3]
  IC50: 0.56 ± 0.07 µM
[1]; [4]
  IC50: 0.562 µM
In vitro
  CC50 at 48 h: > 100 µM

## COc1ccc(NCc2ccc3nc(N)nc(N)c3c2)cc1 [Analog 8]
[1]; [3]
  IC50: 0.25 ± 0.01 µM
[1]; [4]
  IC50: 0.251 µM
In vitro
  CC50 at 48 h: 30.9 ± 2.3 µM

## Cc1ccccc1NCc1ccc2nc(N)nc(N)c2c1 [Analog 9]
[1]; [3]
  IC50: 0.19 ± 0.003 µM
[1]; [4]
  IC50: 0.191 µM
In vitro
  CC50 at 48 h: 22 ± 1.3 µM

## COc1ccc(NC(=O)c2ccc3nc(N)nc(N)c3c2)cc1 [Analog 11]
[1]; [3]
  IC50: 4 ± 1.3 µM
[1]; [4]
  IC50: 3.98 µM
In vitro
  CC50 at 48 h: 22.9 ± 0.5 µM

## COc1ccc(NC(=O)c2ccc3nc(N)nc(N)c3c2)cc1OC [Analog 12]
[1]; [3]
  IC50: > 10 µM
In vitro
  CC50 at 48 h: > 100 µM

## COc1ccccc1NC(=O)c1ccc2nc(N)nc(N)c2c1 [Analog 13]
[1]; [3]
  IC50: 3.2 ± 0.3 µM
[1]; [4]
  IC50: 3.24 µM
In vitro
  CC50 at 48 h: > 100 µM

## COc1cccc(CNC(=O)c2ccc3nc(N)nc(N)c3c2)c1 [Analog 14]
[1]; [3]
  IC50: 2.5 ± 0.13 µM
[1]; [4]
  IC50: 2.51 µM
In vitro
  CC50 at 48 h: > 100 µM

## Cc1ccccc1NC(=O)c1ccc2nc(N)nc(N)c2c1 [Analog 15]
[1]; [3]
  IC50: > 10 µM
In vitro
  CC50 at 48 h: > 100 µM

## COc1ccccc1NCc1cnc(N)nc1N [Analog 16]
[1]; [3]
  IC50: > 10 µM
In vitro
  CC50 at 48 h: > 100 µM

## COc1ccc(NCc2cnc(N)nc2N)cc1 [Analog 17]
[1]; [3]
  IC50: > 10 µM
In vitro
  CC50 at 48 h: > 100 µM

## COc1cccc(CNCc2cnc(N)nc2N)c1 [Analog 18]
[1]; [3]
  IC50: > 10 µM
In vitro
  CC50 at 48 h: > 100 µM

## COc1cccc(CNC(=O)c2cnc(N)nc2N)c1 [Analog 19]
[1]; [3]
  IC50: > 10 µM
In vitro
  CC50 at 48 h: > 100 µM

## COc1ccc(NC(=O)c2cnc(N)nc2N)cc1 [Analog 20]
[1]; [3]
  IC50: > 10 µM
In vitro
  CC50 at 48 h: > 100 µM

## COc1ccccc1NC(=O)c1cnc(N)nc1N [Analog 21]
[1]; [3]
  IC50: > 10 µM
In vitro
  CC50 at 48 h: > 100 µM

## Nc1ncc(C(=O)Nc2cccnc2)c(N)n1 [Analog 22]
[1]; [3]
  IC50: > 10 µM
In vitro
  CC50 at 48 h: > 100 µM

## Cc1ccccc1NC(=O)c1cnc(N)nc1N [Analog 23]
[1]; [3]
  IC50: > 10 µM
In vitro
  CC50 at 48 h: > 100 µM

## COc1ccc(NC(=O)c2cnc(N)nc2N)cc1OC [Analog 24]
[1]; [3]
  IC50: > 10 µM
In vitro
  CC50 at 48 h: > 100 µM

## OC(c1cc(C(F)(F)F)nc2c(C(F)(F)F)cccc12)C1CCCCN1 (centres unmarked) [MMV000016, Mefloquine, reference compound]
[1]; [5]
  IC50: 1.6 ± 0.008 µM
[1]; [6]
  IC50: 1.58 µM
In vitro
  CC50 at 48 h: 11.3 µM

## CCN(CC)CCCCCCNc1cc(OC)cc2c(C)ccnc12 [MMV000063, Sitamaquine, reference compound]
[1]; [5]
  IC50: 1.5 ± 0.03 µM
[1]; [6]
  IC50: 1.58 µM
In vitro
  CC50 at 48 h: > 100 µM

## CC1CS(=O)(=O)CCN1/N=C/c1ccc([N+](=O)[O-])o1 (centres unmarked) [MMV001499, Nifurtimox, reference compound]
[1]; [5]
  IC50: 0.2 ± 0.09 µM
[1]; [6]
  IC50: 0.2 µM
In vitro
  CC50 at 48 h: > 100 µM

## CNC(=O)C1Cc2ccccc2N1C(=O)Cc1ccc(F)cc1 (centres unmarked) [MMV188296]
[2]
  IC50: 0.49 µM
[1]; [7]
  IC50: 1.01 ± 0.25 µM
[1]; negative log of IC50 in molar
  pIC50 T. b. b.: 5.99
Vero cells
  CC50: > 100 µM

## Cc1ccc(C(=O)Nc2ccc(S(=O)(=O)O)c3cc(S(=O)(=O)O)cc(S(=O)(=O)O)c23)cc1NC(=O)c1cccc(NC(=O)Nc2cccc(C(=O)Nc3cc(C(=O)Nc4ccc(S(=O)(=O)O)c5cc(S(=O)(=O)O)cc(S(=O)(=O)O)c45)ccc3C)c2)c1 [MMV637953, Suramine, reference compound]
[1]; [5]
  IC50: 0.08 ± 0.01 µM
[1]; [6]
  IC50: 0.0813 µM
In vitro
  CC50 at 48 h: > 100 µM

## O=C(Nc1ccc2c(c1)B(O)OC2)c1ccccc1C(F)(F)F [MMV652003]
[2]
  IC50: 0.15 µM
[1]; [7]
  IC50: 0.06 ± 0.04 µM
[1]; negative log of IC50 in molar
  pIC50 T. b. b.: 7.22
Vero cells
  CC50: > 100 µM

## Cc1nc(-c2ccccn2)nc(N2CCC(Cc3ccccc3)C2)c1Cl (centres unmarked) [MMV659004]
[2]
  IC50: 6.6 µM
[1]; [7]
  IC50: 1.9 ± 0.003 µM
[1]; negative log of IC50 in molar
  pIC50 T. b. b.: 5.72
Vero cells
  CC50: > 100 µM

## COc1ccc(C(=N)N)cc1-c1cn(-c2ccc(C(=N)N)cc2)nn1 [MMV675998]
[2]
  IC50: 0.25 µM
[1]; [7]
  IC50: 0.34 ± 0.03 µM
[1]; negative log of IC50 in molar
  pIC50 T. b. b.: 6.47
Vero cells
  CC50: > 100 µM

## CO[C@@H](C(=O)N1Cc2[nH]nc(NC(=O)c3ccc(N4CCN(C)CC4)cc3)c2C1)c1ccccc1 [MMV676600]
[2]
  IC50: 1.02 µM
[1]; [7]
  IC50: 0.65 ± 0.007 µM
[1]; negative log of IC50 in molar
  pIC50 T. b. b.: 6.18
Vero cells
  CC50: > 100 µM

## Cc1ncc(-c2ccnc(Nc3ccc(S(C)(=O)=O)cc3)n2)n1C(C)C [MMV676604]
[2]
  IC50: 0.26 µM
[1]; [7]
  IC50: 0.036 ± 0.001 µM
[1]; negative log of IC50 in molar
  pIC50 T. b. b.: 7.44
Vero cells
  CC50: 8.3 ± 1.2 µM

## c1ccc(Oc2ccc(-c3cc(N4CCNCC4)[nH]n3)cc2)cc1 [MMV687706]
[2]
  IC50: 0.99 µM
[1]; [7]
  IC50: 1.9 ± 0.006 µM
[1]; negative log of IC50 in molar
  pIC50 T. b. b.: 5.72
Vero cells
  CC50: 41 ± 6.5 µM

## N=C(N)Nc1ccc(-c2ccc(-c3ccc(N=C(N)N)c(Cl)c3)o2)cc1Cl [MMV688271]
[2]
  IC50: 0.6 µM
[1]; [7]
  IC50: 1.07 ± 0.16 µM
[1]; negative log of IC50 in molar
  pIC50 T. b. b.: 5.97
Vero cells
  CC50: > 100 µM

## NCCN(C(=O)c1ccc(Cl)cc1Cl)c1ccc(OCc2ccc(Cl)cc2)cc1 [MMV688371]
[2]
  IC50: < 0.13 µM
[1]; [7]
  IC50: 1.6 ± 0.1 µM
[1]; negative log of IC50 in molar
  pIC50 T. b. b.: 5.79
Vero cells
  CC50: 7.5 ± 0.1 µM

## CC1=Nc2ccc(Cl)cc2C(c2ccccc2)N1CCNC(=O)CN(C)C (centres unmarked) [MMV688410]
[2]
  IC50: 3.8 µM
[1]; [7]
  IC50: 8.5 ± 0.1 µM
[1]; negative log of IC50 in molar
  pIC50 T. b. b.: 5.07

## CCCCN(CCCC)c1c(C#N)cc(S(=O)(=O)Nc2ccccc2)cc1C#N [MMV688467]
[2]
  IC50: 0.3 µM
[1]; [7]
  IC50: 3.1 ± 0.5 µM
[1]; negative log of IC50 in molar
  pIC50 T. b. b.: 5.50
Vero cells
  CC50: > 100 µM

## N=C(N)c1ccc(-c2cc(-c3ccccc3)on2)cc1 [MMV688514]
[2]
  IC50: 4.06 µM
[1]; [7]
  IC50: 3.2 ± 0.3 µM
[1]; negative log of IC50 in molar
  pIC50 T. b. b.: 5.49
Vero cells
  CC50: 17 ± 2.5 µM

## O=C(Cn1ccnc1[N+](=O)[O-])NCc1ccccc1 [MMV688773, Benznidazole, reference compound]
[1]; [5]
  IC50: 0.3 ± 0.01 µM
[1]; [6]
  IC50: 0.302 µM
In vitro
  CC50 at 48 h: > 100 µM

## CS(=O)(=O)c1ccccc1C(=O)N(Cc1ccccc1)c1ccccc1 [MMV688798]
[2]
  IC50: 0.555 µM
[1]; [7]
  IC50: 0.3 ± 0.025 µM
[1]; negative log of IC50 in molar
  pIC50 T. b. b.: 6.52

## Cc1ccc(S(=O)(=O)Nc2ccc(CN3CCN(C(=O)c4cccc(C#N)c4)CC3)cc2)cc1 [MMV689028]
[2]
  IC50: 0.14 µM
Vero cells
  CC50: > 100 µM

## Clc1ccc(CN2CCN(C3=NCCN3)CC2)cc1Cl [MMV689060]
[2]
  IC50: 31.6 µM
[1]; [7]
  IC50: 2.4 ± 0.06 µM
[1]; negative log of IC50 in molar
  pIC50 T. b. b.: 5.61
